This is an account of results in patent publication US7410975B2, “Small molecule toll-like receptor (TLR) antagonists” (Coley Pharmaceutical Group, Inc., priority 2003, dated 2008).

The structures appear in SMILES notation. Like-named read-outs stand apart in the source and are kept apart here.

In one series the target is T1, hTLR9 (Homo sapiens, UniProt Q9NR96).
T1 construct: expressed in transfected cells
T1 sequence (Q9NR96 26-1032): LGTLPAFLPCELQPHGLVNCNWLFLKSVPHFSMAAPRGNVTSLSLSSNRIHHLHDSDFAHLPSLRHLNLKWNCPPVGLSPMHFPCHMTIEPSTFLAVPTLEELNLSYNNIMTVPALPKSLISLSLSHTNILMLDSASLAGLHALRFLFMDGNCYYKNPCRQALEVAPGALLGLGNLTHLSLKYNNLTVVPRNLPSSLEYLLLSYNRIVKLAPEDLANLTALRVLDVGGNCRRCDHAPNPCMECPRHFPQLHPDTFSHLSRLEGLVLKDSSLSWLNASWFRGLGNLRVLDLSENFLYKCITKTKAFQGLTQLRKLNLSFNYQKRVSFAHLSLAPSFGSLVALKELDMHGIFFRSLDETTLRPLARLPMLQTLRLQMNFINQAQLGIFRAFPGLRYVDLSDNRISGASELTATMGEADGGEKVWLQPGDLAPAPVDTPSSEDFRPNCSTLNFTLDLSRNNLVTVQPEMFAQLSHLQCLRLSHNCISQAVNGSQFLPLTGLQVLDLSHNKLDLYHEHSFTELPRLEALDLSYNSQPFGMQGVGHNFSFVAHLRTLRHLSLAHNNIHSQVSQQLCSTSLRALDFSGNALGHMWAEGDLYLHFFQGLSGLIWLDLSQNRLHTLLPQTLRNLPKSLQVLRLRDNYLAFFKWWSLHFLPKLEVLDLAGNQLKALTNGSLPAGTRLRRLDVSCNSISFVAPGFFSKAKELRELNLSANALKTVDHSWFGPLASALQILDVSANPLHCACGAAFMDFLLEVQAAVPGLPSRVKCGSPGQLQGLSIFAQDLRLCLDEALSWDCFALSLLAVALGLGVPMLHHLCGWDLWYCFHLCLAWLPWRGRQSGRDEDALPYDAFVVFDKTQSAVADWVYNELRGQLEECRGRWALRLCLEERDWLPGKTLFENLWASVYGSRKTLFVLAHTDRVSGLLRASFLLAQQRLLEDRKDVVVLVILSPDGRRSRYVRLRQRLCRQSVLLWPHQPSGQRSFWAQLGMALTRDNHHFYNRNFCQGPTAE
Kind of series: hTLR9 antagonism IC50, hTLR9-NFkB-293 cells, luciferase readout, CpG-ODN 2006 (Examples 8 and 18, Tables 19 and 20). In kind it is cell-based. The note with it: hTLR9-NFkB-293 cells, EC50 dose of CpG-ODN 2006, 16 h; Table 19 quinazolines; read-out: hTLR9 (IC50 dose for blockade of a CpG ODN-generated signal). The protocol: (§1) hTLR9-NFkB-293 cells were counted and seeded at 1.5×10^4 cells per well in 96-well cell culture plates one day before assaying and cultured at 37° C./5% CO2, as described in Example 7. The day of the assay, antagonist was added at varying concentrations starting at 50 μM with a 1/5 to 1/6 dilution for 7 steps. The cells were then stimulated with the EC50 dose of the TLR9 agonist, CpG-ODN 2006, and cultured for 16 h in a humidified incubator at 37° C. The culture supernatant was removed and the cells were treated with lysis buffer and stored at −80° C. before measuring luciferase activity as described in Example 7. […] Results shown in Table 19 under the heading hTLR9 are the IC50 dose (μM) for blockade of a CpG ODN-generated signal in hTLR9-NFkB-293 cells.
as §1, with “20” for “19”

Series [1] has as its system CpG ODN-generated IL-6 production by human PBMC. As to the kind of experiment: Blockade of CpG ODN-generated IL-6 production by human PBMC, ELISA (Example 8, Table 19). The class given is cell-based. The note with it: CpG-ODN 2006, 16 h. The source says: Alternatively, TLR9 ligand antagonism in human peripheral blood mononuclear cells (PBMC) was monitored. Peripheral blood buffy coat preparations from healthy male and female human donors were obtained from the Blood Bank of the University of Düsseldorf (Germany) and from these, PBMC were purified by centrifugation over Ficoll-Hypaque (Sigma). The purified PBMC were resuspended in RPMI 1640 culture medium supplemented with 5% (v/v) heat-inactivated human AB serum (Bio Whittaker, Belgium) or 10% (v/v) heat-inactivated fetal calf serum (FCS), 1.5 mM L-glutamine, 100 U/ml penicillin and 100 μg/ml streptomycin (all from Sigma). Fresh PBMC at a concentration of 3×10^6/ml to 5×10^6/ml were added to 96-well round-bottomed plates (150 μl/well). After cell plating, antagonist was added at varying concentrations starting at 50 μM with a 1/5 to 1/6 dilution for 7 steps. The cells were then stimulated with the TLR9 agonist, CpG-ODN 2006, and cultured for 16 h in a humidified incubator at 37° C. Culture supernatants were collected and, if not used immediately, frozen at −20° C. until required. Interleukin 6 (IL-6) in the supernatants was quantitatively assessed using commercially available ELISA Kits (IL6, Diaclone, USA). Sigmoidal antagonism curves were generated and IC50 calculated. Results shown in Table 19 under the heading IL-6 are the IC50 dose (μM) for blockade of CpG ODN-generated IL-6 production by human PBMC.

Series [2] is described as follows: Macfarlane's assay of chloroquines (IC50). The note with it: from the Macfarlane IC50 values. From the text:
It turns out that chloroquine, hydroxychloroquine, mono de-ethylchloroquine, and bis de-ethylchloroquine have been examined by Macfarlane.

The conditions of series [3]: read-out: IC50 by Macfarlane's assay; cited from earlier work.
The test system of another series is Plasmodium falciparum. As to conditions: treatment of malaria; Aderounmu 1984; cited from earlier work.
For series [4] the following is noted: cited from earlier work.
For another series, the target named is T2, human TLR9 (hTLR9) (Homo sapiens, UniProt Q9NR96).
T2 construct: expressed in transfected cells
T2 sequence (Q9NR96 26-1032): T1 sequence (Q9NR96 26-1032)
In kind it is cell-based. As to conditions: three-point assay at 50, 5.0 or 0.5 μM; EC50 dose of CpG-ODN 2006, 16 h. How it is done:
Stably co-transfecting the human TLR9 receptor (hTLR9) and an NF-κB promoter-driven luciferase gene into HEK-293 cells created the cell line hTLR9-NFkB-293. hTLR9-NFkB-293 cells were counted and seeded at 1.5×10^4 cells per well in 96-well cell culture plates one day before assaying and cultured at 37° C./5% CO2. The day of the assay, antagonist was added at 50 μM, 5.0 μM or 0.5 μM. The cells were then stimulated with the EC50 dose of the TLR9 agonist, CpG-ODN 2006, and cultured for 16 h in a humidified incubator at 37° C. The culture supernatant was removed and the cells were treated with lysis buffer and stored at −80° C. before measuring luciferase activity. The luciferase readout was measured according to manufacturer's instructions using a luciferase assay system available from Promega, USA. The antagonist dose listed in Table 18 is the minimum effective dose (μM) for blockade of the TLR9 agonist. As evident from the results presented in Table 18, the minimum effective dose (μM) for blockade of the TLR9 agonist was 0.5 μM or 5 μM for all of the compounds tested, as measured by this three-point assay.

The test system of a further series is WEHI 231 B-cells. As to conditions: anti-surface IgM, U.S. Pat. No. 6,479,504, read-out: EC50, half-maximal inhibition of CpG-ODN effect on thymidine uptake; cited from earlier work.

Take `CN(C)CCNC1NC(c2ccc(N3CCN(C)CC3)cc2)=Nc2ccccc21` (stereo not drawn) [CMZ 203-34(201), N,N-dimethyl-N′-{2-[4-(4-methyl-piperazin-1-yl)-phenyl]-3,4-dihydro-quinazoline-4-yl}-ethane-1,2,-diamine]: the IC50 at hTLR9 amounted to 3 nM; in series [1], 50 nM.
Consider `CN(C)CCNc1nc(-c2ccccc2)nc2ccccc12` [CMZ 203-44, N,N-Dimethyl-N′-(2-phenyl-quinazolin-4-yl)-ethane-1,2-diamine], for which the values for the IC50 (on hTLR9; in series [1]) were 2400 nM and 4000 nM, respectively.
Regarding `CN(C)CCOc1nc(-c2ccc(N3CCN(C)CC3)cc2)nc2ccccc12` [CMZ 203-49(213), Dimethyl-(2-{2-[4-(4-methyl-piperazin-1-yl)-phenyl]-quinazolin-4-yloxy}-ethyl)-amine], the IC50 on hTLR9 is 2400 nM; in series [1] it was 600 nM.
As for `CN(C)CCNc1nc(-c2ccc(-c3ccccc3)cc2)nc2ccccc12` [CMZ 203-51, N′-(2-Biphenyl-4-yl-quinazolin-4-yl)-N,N-dimethyl-ethane-1,2-diamine], the IC50 turned out to be 5200 nM on hTLR9 and 6600 nM in series [1].
With `COc1cc2nc(N3CCN(C)CC3)nc(NCCN(C)C)c2cc1OC` [CMZ 203-76, N′-[6,7-Dimethoxy-2-(4-methyl-piperazin-1-yl)-quinazolin-4-yl]-N,N-dimethyl-ethane-1,2-diamine], the values for the IC50 (on hTLR9; in series [1]) were 3 nM and 221 nM, respectively.
Take `COc1cc2nc(N3CCN(c4ccccc4)CC3)nc(NCCN(C)C)c2cc1OC` [CMZ 203-78, N′-[6,7-Dimethoxy-2-(4-phenyl-piperazin-1-yl)-quinazolin-4-yl]-N,N-dimethyl-ethane-1,2-diamine]: the IC50 at hTLR9 was found to be 3 nM; in series [1], 8 nM.
For the molecule `CC(CCCN)Nc1ccnc2cc(Cl)ccc12` (stereo not drawn) [bis de-ethylchloroquine], the “reduction of potency relative to chloroquine” value in series [2] was “about 18 fold”. In series [3], the IC50 is 1860 nM. Further, in the series with Plasmodium falciparum, the “potency against Plasmodium falciparum” value is listed as “about half as active”.
In the case of `CCN(CC)CCCC(C)Nc1ccnc2cc(Cl)ccc12` (stereo not drawn) [chloroquine], the “half life in humans” value in series [4] (human, in vivo) was 18 days. The IC50 in series [3] is 110 nM. The “potency against Plasmodium falciparum” value in the series on Plasmodium falciparum was “about equal”.
Consider `Cc1cc(C)c2c(N)c3ccccc3nc2n1` [compound 1690, 2,4-Dimethyl-benzo[b][1,8]naphthyridin-5-ylamine], for which the “antagonist dose (minimum effective dose for blockade of the TLR9 agonist)” value at human TLR9 (hTLR9) is 0.5 µM.
For the molecule `Cc1cc(C)c2c(N)c3cc(F)ccc3nc2n1` [compound 1727, 7-Fluoro-2,4-dimethyl-benzo[b][1,8]naphthyridin-5-ylamine], the “antagonist dose (minimum effective dose for blockade of the TLR9 agonist)” value on human TLR9 (hTLR9) was found to be 0.5 µM.
For `CCN(CCO)CCCC(C)Nc1ccnc2cc(Cl)ccc12` (stereo not drawn) [hydroxychloroquine], the IC50 in series [3] is 410 nM.
In the case of `CCNCCCC(C)Nc1ccnc2cc(Cl)ccc12` (stereo not drawn) [mono de-ethylchloroquine], the “half life relative to that of chloroquine” value in series [4] (humans) is reported as 1.5 times. The “half life in humans” value in series [4] (humans, de Vries 1994) is 27 days. The “reduction of potency relative to chloroquine” value in series [2] is “about 7 fold”. Moreover, in series [3], the IC50 was 708 nM. In addition, in the series with Plasmodium falciparum, the “potency against Plasmodium falciparum” value is recorded as “about equal”.
Consider `CCN(CC)CCCC(C)Nc1c2ccc(Cl)cc2nc2ccc(OC)cc12` (stereo not drawn) [quinacrine], for which the EC50 with WEHI 231 B-cells is ~8 nM.
